Test results published in US8883833B2, “Substituted benzoazole PDE4 inhibitors for treating inflammatory, cardiovascular and CNS disorders” (Decode Genetics EHF, priority 2007, dated 2014).

Columns and labels:
[1] = target: human PDE4D isozyme (Homo sapiens, UniProt Q08499); assay: IC50 for human PDE4D isozyme (Table 4); assay type: biochemical; conditions: read-out: IC50 for human PDE4D isozyme, hPDE4D
Procedure: (§1) In-vitro assay for PDE4 enzymes. The in-vitro activity of PDE4 enzymes and the in-vitro potency of therapeutic agents described in the present invention was measured using a real-time, enzyme-coupled spectrophotometric assay. By using three different coupling enzymes, the product of the PDE4 reaction is coupled to the oxidation of the reduced form β-nicotinamide adenine dinucleotide (NADH), which dissipation can be monitored spectrophotmetrically at […]. Assay description. Buffer A containing 50 mM Tris, pH 8.0, 16 mM MgCl2 and 80 mM KCl is prepared and stored at room temperature. Buffer B containing 50 mM Tris, pH 8.0 is prepared and stored at toom temperature. Stock solutions of the following reagents are prepared in Buffer B and stored at −20° C.: Adenosine-5′-triphosphate (ATP), cyclic adenosine-5′-monophosphate (cAMP), phosphoenolpyruvate (PEP) and NADH. An assay mix is prepared by mixing Buffer A, […] (TCEP), ATP, PEP, NADH, myokinase (MK), pyruvate kinase (PK), lactate dehydroganese (LDH) and PDE4 to a final volume of 20 mL, which is enough for a single 96-well assay plate. Assay mix (180 μL) and test article (10 μL) in 1:1 DMSO/H2O mixture is pre-incubated at room temperature for 10 min. The enzymatic reaction is initiated by addition of cAMP (10 μL). Final concentration of all components in the assay (200 μL/well) are as follows: 10 mM MgCl2, 50 mM KCl, 5 mM TCEP, 2.5% DMSO, 0.4 mM NADH, 1 mM PEP, 0.04 mM ATP, 5 units MK, 1 unit PK, 1 unit LDH and appropriate amount of PDE4. Reaction progress curves are monitored in a plate reader capable of measuring light absorbance at 340 nm. A decrease in light absorbance at 340 nm is due to oxidation of NADH. Positive controls containing no test article and negative controls containing no test article and no cAMP are included on every assay plate. Reaction rates are determined from the slopes of the linear portions of the progress curves. All data is percent normalized with respect to controls and presented as percent inhibition.

[2] = target: human PDE4B isozyme (Homo sapiens, UniProt Q07343); assay: IC50 for human PDE4B isozyme (Table 5); assay type: biochemical; conditions: read-out: IC50 for human PDE4B isozyme, hPDE4B
human PDE4B isozyme, sequence (Q07343 whole entry): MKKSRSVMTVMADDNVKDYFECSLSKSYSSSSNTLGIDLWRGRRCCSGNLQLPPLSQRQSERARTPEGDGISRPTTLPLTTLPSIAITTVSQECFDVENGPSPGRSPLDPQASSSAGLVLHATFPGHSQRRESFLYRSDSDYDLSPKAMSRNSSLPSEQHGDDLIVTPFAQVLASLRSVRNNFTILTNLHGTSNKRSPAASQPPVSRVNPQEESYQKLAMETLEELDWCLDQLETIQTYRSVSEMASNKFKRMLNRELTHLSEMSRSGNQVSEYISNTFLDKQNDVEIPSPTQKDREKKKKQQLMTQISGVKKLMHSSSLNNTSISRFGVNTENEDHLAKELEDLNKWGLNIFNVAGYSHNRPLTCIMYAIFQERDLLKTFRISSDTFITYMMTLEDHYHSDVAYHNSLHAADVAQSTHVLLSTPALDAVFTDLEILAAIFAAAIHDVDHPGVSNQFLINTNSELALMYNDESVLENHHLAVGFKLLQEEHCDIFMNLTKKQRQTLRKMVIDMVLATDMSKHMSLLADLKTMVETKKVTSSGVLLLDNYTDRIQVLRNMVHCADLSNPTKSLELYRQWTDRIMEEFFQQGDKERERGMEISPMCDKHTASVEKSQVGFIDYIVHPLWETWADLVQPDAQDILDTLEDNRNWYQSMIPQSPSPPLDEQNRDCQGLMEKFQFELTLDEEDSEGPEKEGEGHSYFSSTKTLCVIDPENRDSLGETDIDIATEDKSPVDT
Procedure: as §1

human PDE4D isozyme, sequence (Q08499 whole entry): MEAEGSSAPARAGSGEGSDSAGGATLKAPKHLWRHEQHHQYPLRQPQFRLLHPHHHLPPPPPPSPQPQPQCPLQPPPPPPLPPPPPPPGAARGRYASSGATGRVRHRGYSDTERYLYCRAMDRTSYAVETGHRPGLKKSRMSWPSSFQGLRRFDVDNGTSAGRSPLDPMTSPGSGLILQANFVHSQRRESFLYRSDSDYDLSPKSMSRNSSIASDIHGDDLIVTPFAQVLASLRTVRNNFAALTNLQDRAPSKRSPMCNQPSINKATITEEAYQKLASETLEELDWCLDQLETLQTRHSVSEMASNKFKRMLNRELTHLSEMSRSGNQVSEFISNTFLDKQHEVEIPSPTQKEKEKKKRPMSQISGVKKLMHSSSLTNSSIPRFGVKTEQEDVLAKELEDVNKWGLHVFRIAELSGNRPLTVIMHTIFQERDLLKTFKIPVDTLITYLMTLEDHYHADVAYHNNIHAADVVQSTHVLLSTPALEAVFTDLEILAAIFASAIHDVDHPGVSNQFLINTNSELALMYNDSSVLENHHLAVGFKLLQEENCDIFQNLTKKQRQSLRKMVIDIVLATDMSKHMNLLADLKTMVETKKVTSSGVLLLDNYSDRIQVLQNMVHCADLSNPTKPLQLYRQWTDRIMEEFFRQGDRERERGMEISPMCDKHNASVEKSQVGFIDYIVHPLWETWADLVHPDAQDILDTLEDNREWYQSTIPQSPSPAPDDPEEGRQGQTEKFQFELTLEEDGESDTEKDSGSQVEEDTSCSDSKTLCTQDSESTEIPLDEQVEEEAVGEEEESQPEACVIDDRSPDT

Row | Compound | IC50 [1] [µM] | IC50 [2] [µM]
1 | Nc1nc2c(-c3cccc([N+](=O)[O-])c3)cc(Cc3ccc(F)cc3)cc2s1 [BA-01, 6-(4-fluorobenzyl)-4-(3-nitrophenyl)-benzothiazol-2-yl amine] | < 5 | < 5
2 | Nc1nc2c(-c3cccc([N+](=O)[O-])c3)cc(Cn3ccnc3)cc2s1 [BA-02, 6-imidazol-1-ylmethyl-4-(3-nitro-phenyl)-benzothiazol-2-ylamine] | < 5 | < 5
3 | Nc1nc2c(-c3ccc4nonc4c3)cc(Cc3ccc(F)cc3)cc2s1 [BA-03, 4-Benzol[1,2,5]oxadiazol-5-yl-6-(4-fluoro-benzyl)-benzothiazol-2-yl amine] | < 5 | < 5
4 | Nc1nc2c(-c3ccc4c(c3)OCO4)cc(Cc3ccc(F)cc3)cc2s1 [BA-04, 4-Benzo[1,3]dioxol-5-yl-6-(4-fluoro-benzyl)-benzothiazol-2-ylamine] | < 5 | < 5
5 | Nc1nc2c(-c3ccc4c(c3)OCO4)cc(C(O)c3ccc(F)cc3)cc2s1 (stereo not drawn) [BA-05, (2-Amino-4-benzo[1,3]dioxol-5-yl-benzothiazol-6-yl)-(4-fluoro-phenyl)-methanol] | < 5 | < 5
6 | Cn1nccc1C(O)c1cc(-c2ccc3c(c2)OCO3)c2nc(N)sc2c1 (stereo not drawn) [BA-06, (2-Amino-4-benzo[1,3]dioxol-5-yl-benzothiazol-6-yl)-(2-methyl-2H-pyrazol-3-yl)-methanol] | < 5 | < 5
7 | Nc1nc2c(-c3cccc(C(F)(F)F)c3)cc(Cc3ccc(F)cc3)cc2s1 [BA-07, 6-(4-Fluoro-benzyl)-4-(3-trifluoromethyl-phenyl)-benzothiazol-2-ylamine] | < 5 | < 5
8 | Cn1nccc1Cc1cc(-c2ccc3c(c2)OCO3)c2nc(N)sc2c1 [BA-08, 4-Benzo[1,3]dioxol-5-yl-6-(2-methyl-2H-pyrazol-3-ylmethyl)-benzothiazol-2-ylamine] | < 5 | < 5
9 | Nc1nc2c(-c3ccc4c(c3)OCO4)cc(Cn3cccn3)cc2s1 [BA-09, 4-Benzo[1,3]dioxol-5-yl-6-pyrazol-1-ylmethyl-benzothiazol-2-ylamine] | < 5 | < 5
10 | Nc1nc2c(-c3cccc([N+](=O)[O-])c3)cc(Cn3cccn3)cc2s1 [BA-10, 4-(3-Nitro-phenyl)-6-pyrazol-1-ylmethyl-benzothiazol-2-ylamine] | < 5 | < 5
11 | Nc1nc2c(-c3ccc4c(c3)OCO4)nc(Cc3ccc(F)cc3)nc2s1 [BA-11, 7-Benzo[1,3]dioxol-5-yl-5-(4-fluorobenzyl)-thiazolo[5,4-d]pyrimidin-2-ylamine] | < 5 | < 5
12 | CC(=O)c1cccc(-c2cc(Cn3cccn3)cc3sc(N)nc23)c1 [BA-12, 1-[3-(2-Amino-6-pyrazol-1-ylmethyl-benzothiazol-4-yl)-phenyl]-ethanone] | < 5 | < 5
13 | Nc1nc2c(-c3cccc(Br)c3)cc(Cc3ccc(F)cc3)cc2s1 [BA-13, 4-(3-bromophenyl)-6-(4-fluorobenzyl)-1,3-benzothiazol-2-amine] | < 5 | < 5
14 | CSc1cccc(-c2cc(Cn3cccn3)cc3sc(N)nc23)c1 [BA-14, 4-(3-Methylsulfanyl-phenyl)-6-pyrazol-1-ylmethyl-benzothiazol-2-ylamine] | < 5 | < 5
15 | Nc1ccc(Cc2cc3sc(N)nc3c(-c3cccc([N+](=O)[O-])c3)c2O)cc1 [BA-15, 2-Amino-6-(4-amino-benzyl)-4-(3-nitro-phenyl)-benzothiazol-5-ol] | < 5 | < 5
16 | Nc1ccc(Cc2cc3sc(N)nc3c(-c3cccc(Cl)c3)c2F)cc1 [BA-16, 6-(4-amino-benzyl)-4-(3-chloro-phenyl)-5-fluoro-benzothiazol-2-ylamine] | < 5 | < 5
17 | CS(=O)(=O)Nc1ccc(Cc2cc(-c3cccc(Cl)c3)c3nc(N)sc3c2)cc1 [BA-18, N-{4-[2-Amino-4-(3-chloro-phenyl)-benzothiazol-6-ylmethyl]-phenyl}-methanesulfonamide] | < 5 | 5 to 20
18 | CS(=O)(=O)Nc1ccc(Cc2cc3sc(N)nc3c(-c3cccc(Cl)c3)c2F)cc1 [BA-19, N-{4-[2-amino-4-(3-chloro-phenyl)-5-fluoro-benzothiazol-6-ylmethyl]-phenyl}-methanesulfonamide] | < 5 | 5 to 20

Row | Compound | IC50 [1] [µM] | IC50 [2] [µM]
19 | CS(=O)(=O)Nc1ccc(Cc2cc(-c3cccc(Cl)c3)c3nc(N)oc3c2)cc1 [BA-20, N-{4-[2-Amino-4-(3-chloro-phenyl)-benzooxazol-6-ylmethyl]-phenyl}-methanesulfonamide] | < 5 | < 5
20 | NC(=O)Nc1ccc(Cc2cc3sc(N)nc3c(-c3cccc(Cl)c3)c2F)cc1 [BA-21, {4-[2-amino-4-(3-chloro-phenyl)-5-fluoro-benzothiazol-6-ylmethyl]-phenyl}-urea] | < 5 | < 5
21 | Cc1nc2c(-c3cccc(Cl)c3)cc(Cc3ccc(N)cc3)cc2o1 [BA-22, 4-{[4-(3-chlorophenyl)-2-methyl-1,3-benzoxazol-6-yl]methyl}aniline] | < 5 | < 5
22 | Nc1ccc(Cc2cc3scnc3c(-c3cccc(Cl)c3)c2F)cc1 [BA-23, 4-[4-(3-chloro-phenyl)-5-fluoro-benzothiazol-6-ylmethyl]-phenylamine] | < 5 | < 5
23 | Cc1nc2c(-c3cccc(Cl)c3)cc(Cc3ccc(NC(N)=O)cc3)cc2o1 [BA-24, N-(4-{[4-(3-chlorophenyl)-2-methyl-1,3-benzoxazol-6-yl]methyl}phenyl)urea] | < 5 | < 5
24 | Nc1ccc(Cc2cc(-c3cccc(Cl)c3)c3ncsc3c2)cc1 [BA-25, 4-[4-(3-Chloro-phenyl)-benzothiazol-6-ylmethyl]-phenylamine] | < 5 | < 5
25 | Nc1ccc(Cc2cc(-c3cccc(Cl)c3)c3nc(N)sc3c2)cc1 [BA-26, 6-(4-Amino-benzyl)-4-(3-chloro-phenyl)-benzothiazol-2-ylamine] | < 5 | < 5
26 | NC(=O)Nc1ccc(Cc2cc(-c3cccc(Cl)c3)c3nc(N)sc3c2)cc1 [BA-27, {4-[2-Amino-4-(3-chloro-phenyl)-benzothiazol-6-ylmethyl]-phenyl}-urea] | < 5 | < 5
27 | NC(=O)Nc1ccc(Cc2cc(-c3cccc(Cl)c3)c3ncsc3c2)cc1 [BA-28, {4-[4-(3-Chloro-phenyl)-benzothiazol-6-ylmethyl]-phenyl}-urea] | < 5 | < 5
28 | CCNC(=O)Nc1ccc(Cc2cc3sc(N)nc3c(-c3cccc(Cl)c3)c2F)cc1 [BA-29, 1-{4-[2-Amino-4-(3-chloro-phenyl)-5-fluoro-benzothiazol-6-ylmethyl]-phenyl}-3-ethyl-urea] | < 5 | < 5
29 | CCNC(=O)Nc1ccc(Cc2cc3scnc3c(-c3cccc(Cl)c3)c2F)cc1 [BA-30, 1-{4-[4-(3-chloro-phenyl)-5-fluoro-benzothiazol-6-ylmethyl]-phenyl}-3-ethyl-urea] | < 5 | < 5
30 | NC(=O)N1CCN(Cc2cc3scnc3c(-c3cccc(Cl)c3)c2F)CC1 [BA-31, 4-[4-(3-Chloro-phenyl)-5-fluoro-benzothiazol-6-ylmethyl]-piperazine-1-carboxylic acid amide] | < 5 | < 5
31 | Nc1ccc(Cc2cc(-c3cccc(Cl)c3)c3nc(N)oc3c2)cc1 [BA-32, 6-(4-aminobenzyl)-4-(3-chlorophenyl)-1,3-benzoxazol-2-amine] | < 5 | < 5
32 | CCNC(=O)Nc1ccc(Cc2cc3scnc3c(-c3cccc(Cl)c3)c2F)cn1 [BA-33, 1-[5-[4-(3-chloro-phenyl)-5-fluoro-benzothiazol-6-ylmethyl]-pyridin-2-yl]-3-ethyl-urea] | < 5 | < 5
33 | COc1ccc(Cc2cc3scnc3c(-c3cccc(Cl)c3)c2F)cn1 [BA-38, 4-(3-chloro-phenyl)-5-fluoro-6-(6-methoxy-pyridin-3-ylmethyl)-benzothiazole] | < 5 | < 5
34 | CN1CCN(Cc2cc3scnc3c(-c3cccc(Cl)c3)c2F)CC1 [BA-50, 4-(3-Chloro-phenyl)-5-fluoro-6-(4-methyl-piperazin-1-ylmethyl)-benzothiazole] | < 5 | 
35 | Fc1c(Cc2ccc(N3CCCC3)nc2)cc2scnc2c1-c1cccc(Cl)c1 [BA-57, 4-(3-chloro-phenyl)-5-fluoro-6-(6-pyrrolidin-1-yl-pyridin-3-ylmethyl)-benzothiazole] | < 5 | 
36 | Cc1nc2c(-c3cccc(Cl)c3)cc(Cc3ccc(N)nc3)cc2s1 [BA-66, 5-[4-(3-chloro-phenyl)-2-methyl-benzothiazol-6-ylmethyl]-pyridin-2-ylamine] | < 5 | 
